≈ marks a conversion by molar mass, not a printed value. Like-named read-outs stand apart in the source and are kept apart here.
What was measured:
S. aureus (SA) = experiment: MIC, CLSI broth microdilution, worldwide isolates: S. aureus; format: cell-based; settings: Staphylococcus aureus; SA isolates
From the text: In the first study, a total of 235 isolates were collected from medical centers worldwide and tested for susceptibility to Compound 1 and comparator agents by CLSI broth microdilution methods. […] Non-ENT GN pathogens included WT P. aeruginosa (PSA) and Acinetobacter spp. (ACB), and carbapenem (CARB)-R strains, including those with MBL and OXA enzymes, SA and coagulase-negative staphylococci (CoNS) included oxacillin-susceptible (MSSA/MS-CoNS) and —R (MRSA/MR-CoNS) strains.
Minimum inhibitory concentrations (MIC) were determined by reference Clinical and Laboratory Standards Institute (CLSI) broth microdilution methods per M7-A7 [2006]. Briefly, serial two-fold dilutions of Compound 1 and comparator AGs (together, “the test compounds”) were prepared at 2× concentration in appropriate diluent. The dilutions were mixed in 96-well assay plates with bacterial inoculum. Bacteria were suspended in sterile saline and added to each assay plate to obtain a final concentration of 5.5×10^5 CFU/mL. The plates were incubated at 35° C. for 20 hours in ambient air. […] After incubation, assay plates were read using a microtiter plate reader at 600 nm.

[1] = First-in-human phase 1 study: plasma pharmacokinetics of Compound 1; format: in vivo; settings: for AUC(0-inf) / Cmax / clearance / half-life: both sexes, human, plasma, intravenous, human plasma, single dose
From the text: The initial, first-in-human (FIH) phase 1 study was a double-blind, randomized, placebo-controlled, parallel-group, single- and multiple-dose-escalation study to assess the safety, tolerability, and pharmacokinetics of Compound 1 administered IV to healthy adult volunteers. In addition, the design of this FIH phase 1 study provided rationale and support for dosing for the proposed phase 2 study in patients with cUTI (see FIG. 11).
This study was designed with four escalating dose arms in both single-dose and multiple-dose phases. Compound 1 was formulated as a sterile solution at a concentration of 50 mg/mL in 10 mL glass vials for intravenous (IV) administration (“Compound 1 Injection”). To support high-dose, short-course therapy, the FIH phase 1 study investigated escalating doses with shorter durations at the higher dosages. At least 32 male and female healthy subjects (8 per Cohort) were randomized to receive a single dose of either Compound 1 Injection or placebo administered IV by 10 minute infusion in a double-blinded manner, as shown below:
Cohort 1a: 1 mg/kg Single Dose (SD) only
Cohort 1b: 4 mg/kg SD and Multiple Doses (MD) for 10 days
Cohort 2: 7 mg/kg SD and MD for 10 days
Cohort 3: 11 mg/kg SD and MD for 5 days
Cohort 4: 15 mg/kg SD and MD for 3 days
Blood and urine samples for safety laboratory tests were obtained during the screen period, before and after the single-dose, before and after the multiple-dose (additional samples were obtained during multiple-dose period depending on MD duration). Blood samples for PK analysis were obtained with the single dose and first and last multiple-doses at the following times:
5, 10, 15, 20, 30, 45, 60 minutes after the start of the infusion; and
1, 1.5, 2, 2.5 (Cohorts 3 and 4 only), 3, 4, 6, 8, 12, 16, 24, and 48 hours after the start of the infusion.
For subjects in the 10-day multiple-dose cohorts, additional blood samples for PK analysis were obtained predose on days 11, 13, and 15.

[2] = 1 mg/kg, 24 hours, Cohort 1 a (1 mg/kg), compartmental (2) analysis, ± SE
[3] = 1 mg/kg, 48 hours, Cohort 1a (1 mg/kg), noncompartmental analysis, ± SD
[4] = 4 mg/kg, 24 hours, Cohort 1b (4 mg/kg), compartmental (2) analysis, ± SE
[5] = 4 mg/kg, 48 hours, Cohort 1b (4 mg/kg), noncompartmental analysis, ± SD
[6] = 7 mg/kg, 24 hours, Cohort 2 (7 mg/kg), compartmental (2) analysis, ± SE
[7] = 7 mg/kg, 48 hours, Cohort 2 (7 mg/kg), noncompartmental analysis, ± SD
[8] = 11 mg/kg, 24 hours, Cohort 3 (11 mg/kg), compartmental (2) analysis, ± SE
[9] = 11 mg/kg, 48 hours, Cohort 3 (11 mg/kg), noncompartmental analysis, ± SD
[10] = 15 mg/kg, 24 hours, Cohort 4 (15 mg/kg), compartmental (2) analysis, ± SE
[11] = 15 mg/kg, 48 hours, Cohort 4 (15 mg/kg), noncompartmental analysis, ± SD
[12] = healthy volunteers, 1-15 mg/kg IV 10 minute infusion

## CN[C@@H]1[C@@H](O)[C@@H](O[C@@H]2[C@@H](O)[C@H](O[C@H]3OC(CNCCO)=CC[C@H]3N)[C@@H](N)C[C@H]2NC(=O)[C@@H](O)CCN)OC[C@]1(C)O [Compound 1, 6′-(2-Hydroxy-ethyl)-1-(4-amino-2(S)-hydroxy-butyryl)-sisomicin]
S. aureus (SA)
  MIC50: ≤ 0.25 µg/mL
  MIC90: 0.5 µg/mL (≈ 0.844 µM)
[1]; Cohort 4, 15 mg/kg every 24 hours for three days
  accumulation over three days: very little, in any, accumulation
[1]; [2]
  AUC(0-inf): 15000 ± 1000 ng·h/mL
  Cmax: 8000 ± 800 ng/mL
  clearance: 1.13 mL/min/kg
[1]; 1 mg/kg, 24 hours, Cohort 1 a (1 mg/kg), compartmental (2) analysis, ± SE, read-out: t1/2 alpha (converted)
  half-life: 0.5 ± 0.1 h
[1]; 1 mg/kg, 24 hours, Cohort 1 a (1 mg/kg), compartmental (2) analysis, ± SE, read-out: t1/2 beta (converted)
  half-life: 3.5 ± 0.2 h
[1]; 1 mg/kg, 48 hours, Cohort 1a (1 mg/kg)
  AUC(0-inf): 14000 ± 1000 ng·h/mL
[1]; [3]
  Cmax: 7000 ± 700 ng/mL
  clearance: 1.23 mL/min/kg
[1]; [4]
  AUC(0-inf): 65000 ± 4000 ng·h/mL
  Cmax: 38000 ± 4000 ng/mL
  clearance: 1.03 mL/min/kg
[1]; 4 mg/kg, 24 hours, Cohort 1b (4 mg/kg), compartmental (2) analysis, ± SE, read-out: t1/2 alpha (converted)
  half-life: 0.3 ± 0.1 h
[1]; 4 mg/kg, 24 hours, Cohort 1b (4 mg/kg), compartmental (2) analysis, ± SE, read-out: t1/2 beta (converted)
  half-life: 3 ± 0.1 h
[1]; 4 mg/kg, 48 hours, Cohort 1b (4 mg/kg)
  AUC(0-inf): 61000 ± 8000 ng·h/mL
[1]; [5]
  Cmax: 32000 ± 5000 ng/mL
  clearance: 1.12 mL/min/kg
[1]; [6]
  AUC(0-inf): 89000 ± 4000 ng·h/mL
  Cmax: 40000 ± 3000 ng/mL
  clearance: 1.3 mL/min/kg
[1]; 7 mg/kg, 24 hours, Cohort 2 (7 mg/kg), compartmental (2) analysis, ± SE, read-out: t1/2 alpha (converted)
  half-life: 0.7 ± 0.1 h
[1]; 7 mg/kg, 24 hours, Cohort 2 (7 mg/kg), compartmental (2) analysis, ± SE, read-out: t1/2 beta (converted)
  half-life: 3.1 ± 0.1 h
[1]; 7 mg/kg, 48 hours, Cohort 2 (7 mg/kg)
  AUC(0-inf): 88000 ± 12000 ng·h/mL
[1]; [7]
  Cmax: 46000 ± 7000 ng/mL
  clearance: 1.35 mL/min/kg
[1]; [8]
  AUC(0-inf): 186000 ± 8000 ng·h/mL
  Cmax: 106000 ± 10000 ng/mL
  clearance: 0.983 mL/min/kg
[1]; 11 mg/kg, 24 hours, Cohort 3 (11 mg/kg), compartmental (2) analysis, ± SE, read-out: t1/2 alpha (converted)
  half-life: 0.3 ± 0.1 h
[1]; 11 mg/kg, 24 hours, Cohort 3 (11 mg/kg), compartmental (2) analysis, ± SE, read-out: t1/2 beta (converted)
  half-life: 3.1 ± 0.1 h
[1]; 11 mg/kg, 48 hours, Cohort 3 (11 mg/kg)
  AUC(0-inf): 176000 ± 34000 ng·h/mL
[1]; [9]
  Cmax: 114000 ± 27000 ng/mL
  clearance: 1.08 mL/min/kg
[1]; [10]
  AUC(0-inf): 250000 ± 9000 ng·h/mL
  Cmax: 116000 ± 8000 ng/mL
  clearance: 1 mL/min/kg
[1]; 15 mg/kg, 24 hours, Cohort 4 (15 mg/kg), compartmental (2) analysis, ± SE, read-out: t1/2 alpha (converted)
  half-life: 0.8 ± 0.1 h
[1]; 15 mg/kg, 24 hours, Cohort 4 (15 mg/kg), compartmental (2) analysis, ± SE, read-out: t1/2 beta (converted)
  half-life: 3.1 ± 0.2 h
[1]; 15 mg/kg, 48 hours, Cohort 4 (15 mg/kg)
  AUC(0-inf): 242000 ± 37000 ng·h/mL
[1]; 15 mg/kg, 48 hours, Cohort 4 (15 mg/kg), compartmental (2) analysis, read-out: t½ alpha (converted)
  half-life: 3 h
[1]; 15 mg/kg, 48 hours, Cohort 4 (15 mg/kg), compartmental (2) analysis, read-out: t½ beta (converted)
  half-life: 15 h
[1]; [11]
  Cmax: 144000 ± 45000 ng/mL
  clearance: 1.05 mL/min/kg
[1]; [12]
  derived serum clearance rate across doses: remained constant
  dose proportionality of plasma PK: clear dose proportionality

Source: patent US20120208781A1, “AMINOGLYCOSIDE DOSING REGIMENS” (Achaogen, Inc., priority 2009, published 2012)
